Reference: patent US9187506B2 (Bristol-Meyers Squibb Company, priority 2014, dated 2015)
Where two headings read alike, the source gives them in different places.

Experiments:
[1] = molecular target: T1, NR2B-subtype NMDA receptors (Rattus norvegicus, UniProt P35439+Q00960); assay: Radioligand binding assay (3H Ro 25-6981 competition, rat forebrain membranes); details: 3H Ro 25-6981 4 nM
T1 construct: For membrane preparation, rat forebrains were thawed on ice; from tissue; host or cells: rat forebrain membrane homogenate (Sprague Dawley, Harlan)
Description: For membrane preparation, rat forebrains were thawed on ice for 20 minutes in homogenization buffer composed of 50 mM KH2PO4 (pH adjusted to 7.4 with KOH), 1 mM EDTA, 0.005% Triton X 100 and protease inhibitor cocktail (Sigma Aldrich). Thawed brains were homogenized using a Dounce homogenizer and centrifuged at 48000×g for 20 min. The pellet was resuspended in cold buffer and homogenized again using a Dounce homogenizer. Subsequently, the homogenate was aliquoted, snap-frozen and stored at −80° C. for not more than 3-4 months.
To perform the competition binding assay, thawed membrane homogenate was added to each well of a 96-well plate (20 μg/well). The experimental compounds were serially diluted in 100% DMSO and added to each row of the assay plate to achieve desired compound concentrations, keeping the DMSO concentration in the assay plate at 1.33% of the final reaction volume. Next, ^3H Ro 25-6981 (4 nM) was added to the assay plate. After incubation for 1 hr at room temperature, the membrane bound radioligand was harvested on to GF/B filter plates (treated with 0.5% PEI for 1 hr at room temperature). The filter plates were dried at 50° C. for 20 mins, incubated with microscint 20 for 10 minutes and finally, the counts were read on TopCount (Perkin Elmer).

NR2B-subtype receptors = molecular target: T2, NR2B-subtype receptors (Mus musculus, UniProt P35438+Q01097); assay: Ex vivo occupancy assay; type: in vivo; details: iv; for receptor occupancy at 3 mg/kg: CD-1 mice, 3 mg/Kg i.v., forebrain harvested 15 minutes post-dosing; for receptor occupancy at 1 mg/kg: mice, 1 mg/Kg i.v., after forced swim test
T2 construct: from tissue; host or cells: forebrain membrane homogenate of dosed CD-1 mice
Description: (§1) 7-9 weeks old male CD-1 mice were dosed intravenously in a vehicle consisting of 10% dimethylacetamide, 40% PEG-400, 30% hydroxypropyl betacyclodextrin, and 30% water with experimental compounds and the forebrains were harvested 15 minutes post-dosing by decapitation. The brain samples were immediately snap-frozen and stored at −80° C. On the following day, the dosed brain samples were thawed on ice for 15-20 minutes followed by homogenization using Polytron for 10 seconds in cold homogenization buffer composed of 50 mM KH2PO4 (pH adjusted to 7.4 with KOH), 1 mM EDTA, 0.005% Triton X 100 and protease inhibitor cocktail (Sigma Aldrich). The crude homogenates were further homogenized using a Dounce homogenizer and the homogenized membrane aliquots from all animals were flash-frozen and stored at −80° C. until further use. The whole homogenization process was performed on ice.
For determining occupancy, the membrane homogenates were first thawed on ice and then needle-homogenized using a 25 gauge needle. The homogenized membrane (6.4 mg/ml) was added to a 96-well plate followed by addition of ^3H Ro 25-6981 (6 nM). The reaction mixture was incubated for 5 minutes on a shaker at 4° C. and then harvested onto GF/B filter plates (treated with 0.5% PEI for 1 hr at room temperature). The filter plates were dried at 50° C. for 20 mins, incubated with microscint 20 for 10 minutes and read on TopCount (Perkin Elmer). Each dose or compound group consisted of 4-5 animals. The control group of animals was dosed with vehicle alone. Membrane from each animal was added in triplicates to the assay plate. Non-specific binding was determined using 10 μM Ro 25-6981 added to the wells containing membrane homogenates from vehicle-dosed animals. Specific counts/minute was converted to % occupancy at each dose of a compound for each animal using the following equation:
(§2) [formula] […] Drug levels were determined by mass spectroscopy in the usual manner. Drug levels in the blood plasma were 1106 nM in at this dose, and drug levels in the homogonized brain tissue were 1984 nM. […] Drug levels in the blood plasma were 1800 nM in at this dose, and drug levels in the homogonized brain tissue were 2200 nM. […] Drug levels in the blood plasma were 570 nM at this dose, and drug levels in the homogonized brain tissue were 900 nM.

[2] = Drug levels in blood plasma and brain tissue by mass spectroscopy (ex vivo occupancy study); details: male, CD-1, mouse, iv, mice, 3 mg/Kg i.v., 15 minutes post-dosing
Description: as §1, §2

hERG channels = molecular target: T3, hERG channels (Homo sapiens, UniProt Q12809); assay: hERG electrophysiology assay (patch clamp, HEK 293 cells); type: cell-based; details: HEK 293 cells stably expressing hERG, patch clamp tail current
T3 construct: expressed in transfected cells
Description: The experimental compounds were assessed for hERG activity on HEK 293 cells stably expressing hERG channels using patch clamp technique. Coverslips plated with hERG expressing cells were placed in the experimental chamber and were perfused with a solution composed of (in mM): 140 NaCl, 4 KCl, 1.8 CaCl2, 1 MgCl2, 10 Glucose, 10 HEPES (pH 7.4, NaOH) at room temperature. Borosilicate patch pipettes had tip resistances of 2-4 Mohms when filled with an internal solution containing 130 KCl, 1 MgCl2, 1 CaCl2, 10 EGTA, 10 HEPES, 5 ATP-K2 (pH 7.2, KOH). The cells were clamped at −80 mV in whole cell configuration using an Axopatch 200B (Axon instruments, Union City, Calif.) patch clamp amplifier controlled by pClamp (Axon instruments) software. Upon formation of a gigaseal, the following voltage protocol was repeatedly (0.05 Hz) applied to record tail currents: depolarization step from −80 mV to +20 mV for 2 seconds followed by a hyperpolarization step to −65 mV (3 seconds) to elicit tail currents and then, back to the holding potential. […] First, tail currents were recorded in presence of extracellular solution alone (control) and subsequently, in extracellular solution containing increasing compound concentrations. […] The percentage inhibition at each concentration was calculated as reduction in peak tail current with respect to the peak tail current recorded in the presence of control solution. […]

mice = assay: Mouse forced swim test (mFST); type: in vivo; details: 1 mg/Kg i.v., 15 min before 6 min swim session
Description: Forced Swim Test (FST) is an animal model used to assess antidepressant compounds in preclinical studies. The FST was performed similar to the method of Porsolt et al. with modifications (Porsolt R D, Bertin A, Jalfre M. Behavioral despair in mice: a primary screening test for antidepressants. Arch Int Pharmacodyn Thér 1977; 229:327-36). In this paradigm, mice are forced to swim in an inescapable cylinder filled with water. Under these conditions, mice will initially try to escape and eventually develop immobility behavior; this behavior is interpreted as a passive stress-coping strategy or depression-like behavior. Swim tanks were positioned inside a box made of plastic. Each tank was separated from each other by opaque plastic sheets to the height of cylinders. Three mice were subjected to test at a time. Swim sessions were conducted for 6 min by placing mice in individual glass cylinders (46 cm height×20 cm diameter) containing water (20-cm deep, maintained at 24-25° C.). […] The duration of immobility was evaluated during the total 6 min of the test and expressed as duration (sec) of immobility. […] For NCE testing: Test compound was administered in mice 15 min before swim session by i.v. route and immobility time was recorded for next 6 min. […] The NR2B receptor occupancy was determined as reported above and was determined to be 73%. […] The NR2B receptor occupancy was determined to be 79%.

[3] = Drug levels in plasma and brain after mouse forced swim test; type: in vivo; details: iv, mice, 1 mg/Kg i.v., at the end of FST
Description: Forced Swim Test (FST) is an animal model used to assess antidepressant compounds in preclinical studies. The FST was performed similar to the method of Porsolt et al. with modifications (Porsolt R D, Bertin A, Jalfre M. Behavioral despair in mice: a primary screening test for antidepressants. Arch Int Pharmacodyn Thér 1977; 229:327-36). In this paradigm, mice are forced to swim in an inescapable cylinder filled with water. Under these conditions, mice will initially try to escape and eventually develop immobility behavior; this behavior is interpreted as a passive stress-coping strategy or depression-like behavior. Swim tanks were positioned inside a box made of plastic. Each tank was separated from each other by opaque plastic sheets to the height of cylinders. Three mice were subjected to test at a time. Swim sessions were conducted for 6 min by placing mice in individual glass cylinders (46 cm height×20 cm diameter) containing water (20-cm deep, maintained at 24-25° C.). […] The duration of immobility was evaluated during the total 6 min of the test and expressed as duration (sec) of immobility. […] All testing sessions were recorded with a video camera (Sony Handicam, Model: DCR-HC38E; PAL) and scoring was done using the Forced Swim Scan, Version 2.0 software (Clever Systems Inc., Reston, Va., USA; see Hayashi E, Shimamura M, Kuratani K, Kinoshita M, Hara H. Automated experimental system capturing three behavioral components during murine forced swim test. Life Sci. 2011 Feb. 28; 88(9-10):411-7 and Yuan P, Tragon T, Xia M, Leclair C A, Skoumbourdis A P, Zheng W, Thomas C J, Huang R, Austin C P, Chen G, Guitart X. Phosphodiesterase 4 inhibitors enhance sexual pleasure-seeking activity in rodents. […] For NCE testing: Test compound was administered in mice 15 min before swim session by i.v. route and immobility time was recorded for next 6 min. […] The NR2B receptor occupancy was determined as reported above and was determined to be 73%. […] The NR2B receptor occupancy was determined to be 79%.

[4] = brain (homogenized forebrain tissue), read-out: drug levels in the homogonized brain tissue
[5] = plasma, read-out: Drug levels in the blood plasma
[6] = plasma, read-out: Drug levels in the plasma

T2 sequence (Q01097 27-1482, other chains not shown): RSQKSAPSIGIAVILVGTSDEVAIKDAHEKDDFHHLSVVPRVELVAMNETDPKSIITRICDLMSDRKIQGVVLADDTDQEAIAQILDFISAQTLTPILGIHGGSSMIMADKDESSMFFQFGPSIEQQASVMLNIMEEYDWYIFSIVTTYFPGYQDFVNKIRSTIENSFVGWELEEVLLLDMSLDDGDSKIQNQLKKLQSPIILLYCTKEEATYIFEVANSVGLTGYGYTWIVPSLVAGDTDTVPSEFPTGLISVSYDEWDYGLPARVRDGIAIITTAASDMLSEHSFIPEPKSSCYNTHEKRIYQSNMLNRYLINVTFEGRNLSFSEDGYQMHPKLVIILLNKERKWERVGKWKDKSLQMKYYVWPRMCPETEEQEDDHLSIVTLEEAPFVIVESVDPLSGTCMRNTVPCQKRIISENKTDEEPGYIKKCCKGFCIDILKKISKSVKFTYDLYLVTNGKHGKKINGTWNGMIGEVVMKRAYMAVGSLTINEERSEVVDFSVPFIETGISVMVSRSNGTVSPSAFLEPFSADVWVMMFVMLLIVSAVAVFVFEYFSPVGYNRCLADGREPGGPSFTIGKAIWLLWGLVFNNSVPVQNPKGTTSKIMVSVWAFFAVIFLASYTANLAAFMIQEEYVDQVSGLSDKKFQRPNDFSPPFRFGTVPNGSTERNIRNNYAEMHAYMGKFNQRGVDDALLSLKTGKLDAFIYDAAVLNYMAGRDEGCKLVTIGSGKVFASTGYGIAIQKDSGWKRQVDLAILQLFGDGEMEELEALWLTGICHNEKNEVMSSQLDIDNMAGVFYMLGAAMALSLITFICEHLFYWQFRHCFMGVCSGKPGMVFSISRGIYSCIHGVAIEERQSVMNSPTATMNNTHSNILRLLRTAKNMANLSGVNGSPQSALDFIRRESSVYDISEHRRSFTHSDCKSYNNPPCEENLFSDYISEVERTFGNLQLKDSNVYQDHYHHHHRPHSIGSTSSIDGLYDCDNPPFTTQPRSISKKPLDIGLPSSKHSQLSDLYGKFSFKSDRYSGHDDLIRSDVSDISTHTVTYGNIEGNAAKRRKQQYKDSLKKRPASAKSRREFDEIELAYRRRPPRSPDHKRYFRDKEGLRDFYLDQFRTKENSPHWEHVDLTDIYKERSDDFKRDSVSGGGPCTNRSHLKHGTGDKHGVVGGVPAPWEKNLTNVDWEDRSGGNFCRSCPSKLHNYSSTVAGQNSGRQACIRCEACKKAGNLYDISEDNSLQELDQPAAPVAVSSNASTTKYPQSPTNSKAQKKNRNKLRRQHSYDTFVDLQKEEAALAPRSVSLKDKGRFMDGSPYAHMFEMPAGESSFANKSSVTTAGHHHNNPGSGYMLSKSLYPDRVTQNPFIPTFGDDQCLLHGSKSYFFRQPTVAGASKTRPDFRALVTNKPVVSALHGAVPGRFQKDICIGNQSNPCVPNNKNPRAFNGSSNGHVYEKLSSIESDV
T1 sequence (Q00960 27-1482, other chains not shown): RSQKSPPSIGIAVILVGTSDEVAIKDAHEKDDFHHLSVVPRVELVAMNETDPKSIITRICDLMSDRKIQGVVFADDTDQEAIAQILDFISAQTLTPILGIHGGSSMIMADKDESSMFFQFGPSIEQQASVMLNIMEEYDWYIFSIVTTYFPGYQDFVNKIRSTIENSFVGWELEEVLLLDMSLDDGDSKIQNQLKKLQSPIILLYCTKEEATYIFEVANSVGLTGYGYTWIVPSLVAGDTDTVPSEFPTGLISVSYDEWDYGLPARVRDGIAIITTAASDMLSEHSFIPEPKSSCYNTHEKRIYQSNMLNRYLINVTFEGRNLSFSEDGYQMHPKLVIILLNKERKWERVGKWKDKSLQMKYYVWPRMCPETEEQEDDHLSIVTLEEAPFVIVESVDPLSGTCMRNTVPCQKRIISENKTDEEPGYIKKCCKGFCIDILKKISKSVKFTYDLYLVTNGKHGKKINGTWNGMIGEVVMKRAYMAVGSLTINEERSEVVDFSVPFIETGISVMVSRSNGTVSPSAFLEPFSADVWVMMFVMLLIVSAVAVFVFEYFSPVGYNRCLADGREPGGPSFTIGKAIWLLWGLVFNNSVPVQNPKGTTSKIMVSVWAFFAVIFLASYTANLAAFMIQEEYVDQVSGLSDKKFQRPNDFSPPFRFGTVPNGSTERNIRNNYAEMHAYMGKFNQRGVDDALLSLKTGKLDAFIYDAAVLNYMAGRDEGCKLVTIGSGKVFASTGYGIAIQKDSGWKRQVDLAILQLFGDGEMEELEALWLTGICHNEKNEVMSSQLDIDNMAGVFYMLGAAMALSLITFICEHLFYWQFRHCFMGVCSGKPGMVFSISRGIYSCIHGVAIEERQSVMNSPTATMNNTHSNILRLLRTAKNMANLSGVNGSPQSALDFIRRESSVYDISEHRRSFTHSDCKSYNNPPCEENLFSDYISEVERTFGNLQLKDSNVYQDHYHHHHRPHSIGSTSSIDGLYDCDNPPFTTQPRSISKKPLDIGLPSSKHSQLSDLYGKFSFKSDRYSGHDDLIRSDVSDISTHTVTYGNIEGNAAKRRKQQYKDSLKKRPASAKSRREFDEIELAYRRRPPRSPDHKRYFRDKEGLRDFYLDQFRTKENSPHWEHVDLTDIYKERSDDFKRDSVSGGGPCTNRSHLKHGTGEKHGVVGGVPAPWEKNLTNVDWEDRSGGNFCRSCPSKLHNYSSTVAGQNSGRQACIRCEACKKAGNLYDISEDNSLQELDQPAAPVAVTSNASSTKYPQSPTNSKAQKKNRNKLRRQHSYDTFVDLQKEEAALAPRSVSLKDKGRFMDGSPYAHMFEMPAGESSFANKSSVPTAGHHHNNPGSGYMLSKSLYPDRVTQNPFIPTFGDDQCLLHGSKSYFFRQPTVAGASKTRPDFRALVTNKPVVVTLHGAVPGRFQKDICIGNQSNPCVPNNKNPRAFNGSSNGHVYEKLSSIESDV
T3 sequence (Q12809 whole entry): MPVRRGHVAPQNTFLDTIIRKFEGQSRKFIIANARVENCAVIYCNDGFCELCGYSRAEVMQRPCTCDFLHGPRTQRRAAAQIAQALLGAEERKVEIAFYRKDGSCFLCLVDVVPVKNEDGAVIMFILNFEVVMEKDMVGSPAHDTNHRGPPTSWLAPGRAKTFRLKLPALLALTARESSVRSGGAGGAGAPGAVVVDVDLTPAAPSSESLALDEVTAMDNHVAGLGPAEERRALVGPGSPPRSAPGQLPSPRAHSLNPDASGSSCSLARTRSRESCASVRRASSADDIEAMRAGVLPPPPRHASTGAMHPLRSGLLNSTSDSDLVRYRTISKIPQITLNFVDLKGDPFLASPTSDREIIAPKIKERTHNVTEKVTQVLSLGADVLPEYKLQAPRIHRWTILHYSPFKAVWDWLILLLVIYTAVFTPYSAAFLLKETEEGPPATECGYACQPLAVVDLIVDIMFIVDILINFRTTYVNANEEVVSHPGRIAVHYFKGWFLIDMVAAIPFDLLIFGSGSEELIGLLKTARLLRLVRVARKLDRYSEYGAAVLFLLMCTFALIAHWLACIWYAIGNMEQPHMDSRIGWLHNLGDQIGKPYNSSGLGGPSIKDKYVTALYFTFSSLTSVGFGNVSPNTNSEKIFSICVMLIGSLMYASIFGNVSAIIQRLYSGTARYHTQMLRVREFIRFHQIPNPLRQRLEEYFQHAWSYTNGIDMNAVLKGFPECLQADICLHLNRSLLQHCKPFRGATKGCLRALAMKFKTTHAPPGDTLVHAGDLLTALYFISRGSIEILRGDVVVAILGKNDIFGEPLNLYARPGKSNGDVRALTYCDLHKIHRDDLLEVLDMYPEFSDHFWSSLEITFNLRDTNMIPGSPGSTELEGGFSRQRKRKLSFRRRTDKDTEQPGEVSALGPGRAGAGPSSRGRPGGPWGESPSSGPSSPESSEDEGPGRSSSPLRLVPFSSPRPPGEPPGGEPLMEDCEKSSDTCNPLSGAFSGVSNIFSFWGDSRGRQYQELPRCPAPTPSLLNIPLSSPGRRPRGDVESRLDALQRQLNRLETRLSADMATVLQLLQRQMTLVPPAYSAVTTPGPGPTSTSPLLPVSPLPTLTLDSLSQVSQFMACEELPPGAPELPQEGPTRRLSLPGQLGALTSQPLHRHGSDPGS

Ki [1] | receptor occupancy at 3 mg/kg (NR2B-subtype receptors) | receptor occupancy at 1 mg/kg (NR2B-subtype receptors) | concentration at 15 min [2, 4] | concentration at 15 min [2, 5] | concentration at 21 min [3, 6] | concentration at 21 min ([3]; brain, read-out: Drug levels in the brain) | SMILES | IC50 (hERG channels) | immobility time (mice)
0.004 µM | 97% | 79% | 2200 nM | 1800 nM | 360 nM | – | O=C1[C@H](N2CC[C@@H](c3ccc(O)cc3)[C@H](F)C2)CCN1Cc1ccc(C(F)F)cc1 (single isomer, unassigned) [example 6] | 13.5 µM | statistically significant decrease in immobility time
0.0014 µM | 96% | – | 900 nM | 570 nM | – | – | O=C1[C@H](N2CCC(c3ccc(O)cc3)CC2)CCN1Cc1ccc(F)cc1 (single isomer, unassigned) [example 8] | – | –
– | 95% | 73% | 1980 nM | 1110 nM | 268 nM | 749 nM | Cc1ccc(CN2CC[C@@H](N3CC[C@@H](c4ccc(O)cc4)[C@H](F)C3)C2=O)cc1 [example 1, (R)-3-((3S,4S)-3-fluoro-4-(4-hydroxyphenyl)piperidin-1-yl)-1-(4-methylbenzyl)pyrrolidin-2-one] | 28 µM | statistically significant decrease in immobility time
